# According to PubChem BioAssay AID1963872 (Molecular Pharmacology Branch, DTP, NCI, 2024):
# Test system: KRAS patient-derived spheroids with HUVEC/MSC, viability
# Test: Anticancer human tumor 519858-162-T-J1-PDC patient-derived colon adenocarcinoma cell line growth inhibition [KRAS2]
# Conditions: for IC50: curve of first compound; for viability, T/C: stronger effect = lower value
# Method in brief: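 KRAS-mutant tumor cells were grown as spheroids with HUVEC endothelial cells and human MSCs as stroma. Targeted agents were tested alone and with KRAS pathway inhibitors. Doses started at or near clinical Cmax, or 10 microM, descending half-log.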
# [1] = second compound 0.1 µM, first compound 0.0316 µM
# [2] = second compound 0.1 µM, first compound 0.1 µM
# [3] = second compound 0.1 µM, first compound 0.316 µM
# [4] = second compound 0.1 µM, first compound 1 µM
# [5] = second compound 0.1 µM, first compound 3.16 µM
# [6] = second compound 0.1 µM, first compound 10 µM
# [7] = second compound 0.316 µM, first compound 0.0316 µM
# [8] = second compound 0.316 µM, first compound 0.1 µM
# [9] = second compound 0.316 µM, first compound 0.316 µM
# [10] = second compound 0.316 µM, first compound 1 µM
# [11] = second compound 0.316 µM, first compound 3.16 µM
# [12] = second compound 0.316 µM, first compound 10 µM
# [13] = second compound 1 µM, first compound 0.0316 µM
# [14] = second compound 1 µM, first compound 0.1 µM
# [15] = second compound 1 µM, first compound 0.316 µM
# [16] = second compound 1 µM, first compound 1 µM
# [17] = second compound 1 µM, first compound 3.16 µM
# [18] = second compound 1 µM, first compound 10 µM
# [19] = second compound 3.16 µM, first compound 0.0316 µM
# [20] = second compound 3.16 µM, first compound 0.1 µM
# [21] = second compound 3.16 µM, first compound 0.316 µM
# [22] = second compound 3.16 µM, first compound 1 µM
# [23] = second compound 3.16 µM, first compound 3.16 µM
# [24] = second compound 3.16 µM, first compound 10 µM
# [25] = second compound 10 µM, first compound 0.0316 µM
# [26] = second compound 10 µM, first compound 0.1 µM
# [27] = second compound 10 µM, first compound 0.316 µM
# [28] = second compound 10 µM, first compound 1 µM
# [29] = second compound 10 µM, first compound 3.16 µM
# [30] = second compound 10 µM, first compound 10 µM
# 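Also: compound exposure lasted seven days before readout.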
# 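For viability, T/C in this document: 100% = DMSO vehicle control viability.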
Compound,IC50 (second compound 0.1 µM),IC50 (second compound 0.316 µM),IC50 (second compound 1 µM),IC50 (second compound 3.16 µM),IC50 (second compound 10 µM),"viability, T/C [1]","viability, T/C [2]","viability, T/C [3]","viability, T/C [4]","viability, T/C [7]","viability, T/C [8]","viability, T/C [9]","viability, T/C [10]","viability, T/C [13]","viability, T/C [14]","viability, T/C [15]","viability, T/C [16]","viability, T/C [19]","viability, T/C [20]","viability, T/C [21]",other results
O=C(c1cc(Cc2n[nH]c(=O)c3ccccc23)ccc1F)N1CCN(C(=O)C2CC2)CC1 + COc1cc2nc(C)nc(NC(C)c3cc(N)cc(C(F)(F)F)c3)c2cc1OC1CCOC1,> 10 µM,> 10 µM,> 10 µM,> 10 µM,> 10 µM,68.1%,98.2%,98.6%,111%,75.1%,90%,89.9%,80.2%,73.3%,108%,89.9%,83.7%,78.1%,89.7%,75.6%,"viability, T/C [5]: 91%; viability, T/C [6]: 97.4%; viability, T/C [11]: 102%; viability, T/C [12]: 99.1%; viability, T/C [17]: 112%; viability, T/C [18]: 72.6%; viability, T/C [22]: 80.8%; viability, T/C [23]: 79.6%; viability, T/C [24]: 66.8%; viability, T/C [25]: 117%; viability, T/C [26]: 85.1%; viability, T/C [27]: 96.2%; viability, T/C [28]: 53.4%; viability, T/C [29]: 67.1%; viability, T/C [30]: 109%"
Cn1nccc1Nc1nccc(-c2cc3c(s2)C(C)(C)N(CCN2CCOCC2)C3=O)n1 + C=CC(=O)N1CCN(c2nc(=O)n(-c3c(C)ccnc3C(C)C)c3nc(-c4c(O)cccc4F)c(F)cc23)C(C)C1,4.83 µM,> 10 µM,5.46 µM,1.93 µM,1.52 µM,69%,106%,81.6%,83.5%,123%,79.5%,77.9%,70.4%,76.4%,94.9%,63.8%,80.3%,82.3%,106%,70.5%,"viability, T/C [5]: 56.5%; viability, T/C [6]: 38.9%; viability, T/C [11]: 74.2%; viability, T/C [12]: 42.5%; viability, T/C [17]: 59.4%; viability, T/C [18]: 37.9%; viability, T/C [22]: 55.2%; viability, T/C [23]: 51.9%; viability, T/C [24]: 29.3%; viability, T/C [25]: 91%; viability, T/C [26]: 72.3%; viability, T/C [27]: 58.9%; viability, T/C [28]: 51%; viability, T/C [29]: 49.3%; viability, T/C [30]: 43.6%"
CCN1CCN(Cc2ccc(Nc3ncc(F)c(-c4cc(F)c5nc(C)n(C(C)C)c5c4)n3)nc2)CC1 + COc1cc2nc(C)nc(NC(C)c3cc(N)cc(C(F)(F)F)c3)c2cc1OC1CCOC1,0.526 µM,0.391 µM,0.391 µM,0.471 µM,0.0446 µM,77.2%,74.5%,62.1%,34.7%,72.3%,98.2%,54.8%,29%,77.6%,61.8%,55.1%,30.1%,48.9%,67.2%,73.8%,"viability, T/C (second compound 0.1 µM, first compound 0.00316 µM): 76.9%; viability, T/C (second compound 0.1 µM, first compound 0.01 µM): 78.5%; viability, T/C (second compound 0.316 µM, first compound 0.00316 µM): 83.8%; viability, T/C (second compound 0.316 µM, first compound 0.01 µM): 56%; viability, T/C (second compound 1 µM, first compound 0.00316 µM): 51.5%; viability, T/C (second compound 1 µM, first compound 0.01 µM): 80.2%; viability, T/C (second compound 3.16 µM, first compound 0.00316 µM): 69.3%; viability, T/C (second compound 3.16 µM, first compound 0.01 µM): 51%; viability, T/C [22]: 27.4%; viability, T/C (second compound 10 µM, first compound 0.00316 µM): 84%; viability, T/C (second compound 10 µM, first compound 0.01 µM): 58%; viability, T/C [25]: 64.8%; viability, T/C [26]: 38.3%; viability, T/C [27]: 20.2%; viability, T/C [28]: 19.4%"
